Holding throughout (assay type): cell-based
One series deals with T1, TLR7 (Homo sapiens, UniProt Q9NYK1).
T1 construct: endogenous in cells; host or cells: human PBMCs from healthy donors
T1 sequence (Q9NYK1 27-1049): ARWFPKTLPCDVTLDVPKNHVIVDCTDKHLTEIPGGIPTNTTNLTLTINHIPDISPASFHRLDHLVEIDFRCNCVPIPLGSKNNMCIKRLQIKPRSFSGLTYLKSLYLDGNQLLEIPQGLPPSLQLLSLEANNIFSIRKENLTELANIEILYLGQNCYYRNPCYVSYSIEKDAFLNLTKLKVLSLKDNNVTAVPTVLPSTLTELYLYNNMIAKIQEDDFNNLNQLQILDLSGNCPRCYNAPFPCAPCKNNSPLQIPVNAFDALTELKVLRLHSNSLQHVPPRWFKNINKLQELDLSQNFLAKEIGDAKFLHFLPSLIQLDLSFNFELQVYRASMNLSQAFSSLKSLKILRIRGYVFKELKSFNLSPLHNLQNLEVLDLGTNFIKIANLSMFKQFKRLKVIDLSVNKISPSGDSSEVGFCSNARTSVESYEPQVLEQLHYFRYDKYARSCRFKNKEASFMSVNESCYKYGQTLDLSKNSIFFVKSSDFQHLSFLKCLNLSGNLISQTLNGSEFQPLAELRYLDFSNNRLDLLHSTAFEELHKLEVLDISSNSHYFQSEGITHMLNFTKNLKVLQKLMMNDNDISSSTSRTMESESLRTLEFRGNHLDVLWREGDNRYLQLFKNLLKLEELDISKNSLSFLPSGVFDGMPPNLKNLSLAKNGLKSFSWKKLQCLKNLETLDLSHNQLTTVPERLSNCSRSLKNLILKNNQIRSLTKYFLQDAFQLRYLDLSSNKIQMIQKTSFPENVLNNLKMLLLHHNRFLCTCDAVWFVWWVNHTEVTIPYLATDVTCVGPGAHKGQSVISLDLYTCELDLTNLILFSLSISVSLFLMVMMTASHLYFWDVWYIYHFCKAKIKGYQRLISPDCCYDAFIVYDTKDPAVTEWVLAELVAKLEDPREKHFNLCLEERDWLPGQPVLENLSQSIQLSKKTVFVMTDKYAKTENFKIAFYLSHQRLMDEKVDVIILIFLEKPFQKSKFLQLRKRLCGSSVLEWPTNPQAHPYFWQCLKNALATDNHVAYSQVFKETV
Kind of series: Inhibition of TLR7 (imiquimod)-induced IFNα and IP10 (CXCL10) in PBMCs. On the procedure:
After 24 hours, the supernatant was harvested and tested for IFNα using MagPix Multi-Plex technology.

Series [1] relates to canonical NF-κB promoter reporter. In words: Mouse Raw Blue Reporter Cells, SEAP reporter driven by canonical NF-κB promoter (FIG. 11). The note with it: mouse macrophages, 24 hrs. On the procedure:
Mouse Raw Blue Reporter Cells (Invivogen), containing a secreted embryonic alkaline phosphatase (SEAP) reporter gene driven by canonical NF-κB promoter, were plated in 96-well plates at 50,000 cells/well in DMEM Media supplemented with 10% FBS, 2 mM L-glutamine, 1% Pen/Strep, […] Normacin. […] The supernatant was harvested and tested for SEAP production by measuring OD at 630 nm.

For a further series, the system named is human PBMCs. In words: IL-1β secretion from human PBMCs by ELISA (inflammasome activation). The note with it: 24 hours, FIG. 15. (An ELISA detects its analyte on a solid surface through an enzyme-linked reagent.)
For another series, the target named is T2, TLR9 (Homo sapiens, UniProt Q9NR96).
T2 construct: expressed in transfected cells; host or cells: TLR9 expressing HEK293 reporter cells with a human NF-κB reporter construct
T2 sequence (Q9NR96 26-1032): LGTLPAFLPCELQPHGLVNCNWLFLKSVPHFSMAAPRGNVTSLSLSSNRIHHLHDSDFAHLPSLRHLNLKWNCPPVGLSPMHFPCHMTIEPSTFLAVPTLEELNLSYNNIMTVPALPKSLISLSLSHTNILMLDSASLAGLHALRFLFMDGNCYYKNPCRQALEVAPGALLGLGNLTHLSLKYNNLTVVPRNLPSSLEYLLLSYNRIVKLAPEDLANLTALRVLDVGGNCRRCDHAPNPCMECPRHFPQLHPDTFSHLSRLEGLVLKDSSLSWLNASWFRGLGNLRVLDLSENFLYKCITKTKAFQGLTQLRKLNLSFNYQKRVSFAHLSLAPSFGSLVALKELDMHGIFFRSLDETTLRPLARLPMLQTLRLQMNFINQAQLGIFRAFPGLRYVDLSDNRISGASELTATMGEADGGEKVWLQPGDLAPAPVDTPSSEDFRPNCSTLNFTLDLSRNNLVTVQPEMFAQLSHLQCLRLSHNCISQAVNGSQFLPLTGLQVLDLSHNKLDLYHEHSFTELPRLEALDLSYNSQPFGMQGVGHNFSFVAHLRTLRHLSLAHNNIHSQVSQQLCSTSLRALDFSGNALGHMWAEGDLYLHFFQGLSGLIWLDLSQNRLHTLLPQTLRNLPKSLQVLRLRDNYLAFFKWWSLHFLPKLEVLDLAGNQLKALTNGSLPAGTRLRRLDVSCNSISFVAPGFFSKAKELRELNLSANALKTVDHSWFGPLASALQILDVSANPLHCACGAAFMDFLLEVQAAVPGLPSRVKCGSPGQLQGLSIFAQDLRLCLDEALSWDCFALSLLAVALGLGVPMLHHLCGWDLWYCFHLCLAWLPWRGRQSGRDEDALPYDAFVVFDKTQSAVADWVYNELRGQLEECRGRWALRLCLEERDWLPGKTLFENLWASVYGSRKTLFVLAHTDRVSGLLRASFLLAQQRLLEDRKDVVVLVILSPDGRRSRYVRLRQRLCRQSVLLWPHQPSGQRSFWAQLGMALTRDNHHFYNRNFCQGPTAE
Kind of series: NF-κB reporter gene in recombinant TLR9-expressing HEK293 cells. How it is done:
FIGS. 16A-B show results of experiments in which recombinant TLR-expressing HEK293 cells carrying an NF-κB reporter gene were incubated with COMPOUND(I), ODN150, ODN2006, or ODN7040 for 48 hours at the indicated concentrations.
In general terms: In a reporter assay the amount or activity of a reporter protein is the signal.

Another series relates to purified human pDCs. In words: pDC differentiation, differentiation markers CD86, CD83, CCR6, CCR7 by flow cytometry. On the set-up: key: (↑) indicates a weak but detectable activity; (↑↑) and (↑↑↑) indicate different levels of moderate activities; (↑↑) and (↑↑↑) indicate different levels of moderate activities; (↑↑↑↑) indicates a strong activity; (−) indicates no detectable activity. Particulars: relative strength, Table 6.

Like-named read-outs stand apart in the source and are kept apart here. Oligonucleotides are written 5' to 3', each unit as a sugar letter and its base; * is a phosphorothioate linkage, no mark a phosphodiester; rarer units and linkages stand in square brackets, end groups in braces. Plain capitals give the bases only. d = 2'-deoxy (DNA) Where only a bound is given, the exact number is not on record here.

One may read the IC50 as the concentration at which inhibition is half-maximal.

Turning to “ODN150: 5′-G*G*A*ACAGTTCGTCCAT*G*G*C-3′, PO except * = PS; antisense to p65 of NF-kB mRNA; tested clinically for ulcerative colitis (DNA dG*dG*dA*dAdCdAdGdTdTdCdGdTdCdCdAdT*dG*dG*dC)”, the IC50 with TLR7 (Imiquimod 5 μg/ml 24 hours, FIGS. 8B, 9A, read-out: IC50, TLR7-mediated IFNα induction) was more than 10 µM; with TLR7 (imiquimod, FIG. 9B, read-out: IC50, TLR7-mediated IP10 (CXCL10) induction), more than 10 µM. The “concentration from which the NF-κB reporter is activated” value in series [1] is 10 µM. The “activation of canonical NF-κB reporter” value in series [1] (SEAP, COMPOUND (I) up to 10 μM) is listed as “activate”. Besides, in the series on human PBMCs, the IL-1β induction entry is “did not induce”. Further, the “TLR pathway activation (NF-κB)” value in the series with TLR9 (Reporter Cell, relative strength, Table 6) was “↑ ↑”. Also, the “NF-κB reporter gene activation” value in the series with TLR9 (TLR9-expressing HEK293 cells, 48 hours, FIGS. 16A-B) was “concentration-dependent NF-kB induction”. Besides, the pDC differentiation entry with purified human pDCs is “↑”.
